Consider two compounds from BindingDB's records for patent US20250353858 (BEONE MEDICINES I GMBH, 2025).

Test [1] has as its target Diacylglycerol kinase alpha (Homo sapiens, UniProt P23743). Kind of test: Biochemical DGK IC50 Assay. The protocol: (§1) Enzymatic reactions of DGKζ, DGKα and DGKδ were performed using ADP-Glo assay with lipid micelle substrate. […] Full length DGKα (D21-10BG, SignalChem) and full length DGKδ (D23-10G, SignalChem) were purchased. […] The resulted product was resuspended in buffer containing 25 mM HEPES pH 7.0, 0.5 mM EDTA and 160 mM Octyl β-D glucopyranoside by vigorous mixing and ultrasonic (IID, Scientz).Final concentration in reaction Enzyme Enzyme (nM) ATP (μM) DAG (μM)DGKα 7.5 140 80DGKδ 10 140 80DGKζ 0.5 140 80The inhibition activities testing for the compound disclosed herein were carried out at room temperature in assay buffer containing 50 mM HEPES, 10 mM MgCl2, 0.01% BSA, 0.1 mM Na3VO4, 0.005% Tween-20 and 0.01 mM CaCl2. […] 3 μL 2× enzyme solution was added to wells. […] After 1 hour reaction, 5 μL ADP-Glo reagent (Promga V9101) was added and incubated for 40 minutes. 10 μL Kinase Detection reagent was added and incubated for 30 minutes. Luminescence was measured on a microplate reader (PHERAstar FSX, BMG labtech). The IC50s are calculated based on inhibition of enzyme activity in the presence of increasing concentrations of compounds.

Test [2] deals with Diacylglycerol kinase zeta (Homo sapiens, UniProt Q13574). The test is described as follows: Biochemical DGK IC50 Assay. The protocol:
as §1

Sequence of Diacylglycerol kinase alpha (P23743 whole entry): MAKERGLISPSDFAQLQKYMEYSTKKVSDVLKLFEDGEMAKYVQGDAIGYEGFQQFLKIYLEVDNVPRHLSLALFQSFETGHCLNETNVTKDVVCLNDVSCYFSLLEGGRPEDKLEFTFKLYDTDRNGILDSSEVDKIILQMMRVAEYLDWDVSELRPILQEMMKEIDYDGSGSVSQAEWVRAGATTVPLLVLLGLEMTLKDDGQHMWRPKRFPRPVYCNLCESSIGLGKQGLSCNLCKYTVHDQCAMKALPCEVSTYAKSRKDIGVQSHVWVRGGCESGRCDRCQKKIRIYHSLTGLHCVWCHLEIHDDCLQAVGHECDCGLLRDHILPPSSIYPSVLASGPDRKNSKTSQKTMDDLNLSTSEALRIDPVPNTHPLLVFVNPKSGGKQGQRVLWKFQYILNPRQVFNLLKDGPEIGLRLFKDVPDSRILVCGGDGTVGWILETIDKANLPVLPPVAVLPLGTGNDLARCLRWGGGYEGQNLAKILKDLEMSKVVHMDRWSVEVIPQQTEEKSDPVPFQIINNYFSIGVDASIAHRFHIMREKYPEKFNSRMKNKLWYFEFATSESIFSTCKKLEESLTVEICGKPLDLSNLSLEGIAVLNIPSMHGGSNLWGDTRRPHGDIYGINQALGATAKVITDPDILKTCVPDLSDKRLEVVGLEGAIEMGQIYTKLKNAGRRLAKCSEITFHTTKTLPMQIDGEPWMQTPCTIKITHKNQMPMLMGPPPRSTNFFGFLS
Sequence of Diacylglycerol kinase zeta (Q13574 as listed by the source): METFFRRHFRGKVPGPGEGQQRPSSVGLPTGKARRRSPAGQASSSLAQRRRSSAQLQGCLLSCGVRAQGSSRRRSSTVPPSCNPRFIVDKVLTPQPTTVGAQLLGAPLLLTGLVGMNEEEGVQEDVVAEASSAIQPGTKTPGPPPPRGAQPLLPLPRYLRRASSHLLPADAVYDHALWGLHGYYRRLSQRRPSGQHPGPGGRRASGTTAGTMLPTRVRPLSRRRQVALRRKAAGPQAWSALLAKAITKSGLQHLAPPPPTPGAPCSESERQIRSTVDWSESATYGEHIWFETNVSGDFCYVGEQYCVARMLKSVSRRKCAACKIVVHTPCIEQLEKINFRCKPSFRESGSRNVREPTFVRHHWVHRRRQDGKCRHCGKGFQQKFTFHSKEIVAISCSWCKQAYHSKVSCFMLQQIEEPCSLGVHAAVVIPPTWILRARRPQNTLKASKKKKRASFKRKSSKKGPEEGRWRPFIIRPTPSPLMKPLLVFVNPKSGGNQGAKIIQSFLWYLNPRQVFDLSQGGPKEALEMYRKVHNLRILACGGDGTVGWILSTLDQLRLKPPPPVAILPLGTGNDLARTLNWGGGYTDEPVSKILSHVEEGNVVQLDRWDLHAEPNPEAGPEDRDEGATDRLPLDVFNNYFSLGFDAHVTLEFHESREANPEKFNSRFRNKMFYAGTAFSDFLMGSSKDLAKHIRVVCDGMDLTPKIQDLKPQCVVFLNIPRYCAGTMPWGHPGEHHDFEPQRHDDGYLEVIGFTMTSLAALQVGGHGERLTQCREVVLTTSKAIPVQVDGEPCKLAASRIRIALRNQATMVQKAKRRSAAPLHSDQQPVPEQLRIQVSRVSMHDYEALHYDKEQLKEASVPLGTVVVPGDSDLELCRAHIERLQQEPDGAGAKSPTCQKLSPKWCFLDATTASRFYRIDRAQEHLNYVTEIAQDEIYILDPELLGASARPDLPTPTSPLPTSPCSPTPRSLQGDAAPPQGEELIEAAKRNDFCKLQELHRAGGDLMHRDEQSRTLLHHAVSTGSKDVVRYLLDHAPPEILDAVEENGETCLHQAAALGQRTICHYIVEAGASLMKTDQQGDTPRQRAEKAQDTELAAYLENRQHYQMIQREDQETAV

For orientation: IC50 means the midpoint of a concentration-inhibition curve. A higher IC50 goes with lower potency. For `CC(c1ccc2c(n1)OC(C)(C)CO2)N1C[C@H](C)N(c2cc(=O)n(C)c3cn(CC#N)nc23)C[C@H]1C` (stereo partly drawn) [2-(7-((2S,5R)-4-(1-(3,3-dimethyl-2,3-dihydro-[1,4]dioxino[2,3-b]pyridin-6-yl)ethyl)-2,5-dimethylpiperazin-1-yl)-4-methyl-5-oxo-4,5-dihydro-2H-pyrazolo[4,3-b]pyridin-2-yl)acetonitrile], the IC50 in test [1] was 61.5 µM; in test [2], 75 nM.

As to `C[C@@H]1CC(c2cc(=O)n(C)c3cc(CC#N)nn23)CCN1[C@H](C)c1ccc2nccnc2c1` (stereo partly drawn) [US20250353858, Compound A33b], in test [1], the IC50 is greater than 10 µM.
